“Also recorded” adds a separate entry of the source.
How the values were obtained:
[1] = system: E1α subunit of immunoprecipitated PDH complex; assay: 2D-gel isoelectric focusing and Western blot with E1α-specific mAb to follow phosphorylation of immunoprecipitated PDH; conditions: pH gradient 10 to 3; compared with untreated enzyme
[2] = system: T1, immunocaptured human heart PDH complex; assay: Immunocapture microplate PDH activity assay (NADH production) with known inhibitors and activators; type: biochemical; conditions: agent added to wells with already immunocaptured PDH; unmodified human heart PDH control = 100%
T1 construct: tissue Analytic Biological Services, Inc; host or cells: human heart mitochondria, lauryl maltoside solubilized, captured on anti-E2 mAb plates
Procedure: FIG. 3 is a graph summarizing the results of tests for specific inhibition and activation of immunocaptured PDH activity. Known inhibitors and activators as shown were added directly to wells of microtiter plates and incubated with already immunocaptured PDH. Activity of the complex was monitored by measuring production of NADH per min/mg mitochondrial protein. Unmodified activity of human heart PDH (control) was set to 100%.
96-well ELISA plates (Falcon Probind) were coated with Goat-anti-mouse IgG Fc specific antibody (0.5 μg/well) in PBS buffer overnight at 4° C. After 3 washings, wells were coated with monoclonal anti-PDH-E2 subunit at 0.5 μg/well and incubated for 1-2 hours at room temperature. The wells were washed 3-4 times and covered with a 0.5% bovine serum albumin solution for 1 hour to minimize non-specific protein binding to the wells. After blocking, wells were washed 5 times and 100 μl of solubilized mitochondria applied and incubated in the wells at room temperature for 1 hour. After incubation, the supernatant was collected and reapplied to a second antibody-covered plate to test for residual activity.
100 μl/well of the reaction mixture (50 mM Tris, pH 7.5; 2 mM β-NAD+, 225 μM TPP, 2 mM pyruvate, 150 μM Coenzyme A, 2.6 mM cysteine, 1 mM MgCl2) was applied and NADH production was monitored either spectrophotometrically at […] or by measuring fluorescence in the presence of 15 μM resazurin and 0.5 U/ml diaphorase using an excitation wavelength of 530 nm and an emission wavelength of 590 nm for up to […]. […] Activity was calculated as nMol NADH/min/mg of mitochondrial protein.
Monoclonal anti-E2 antibodies were attached to 96-well microplates to which had been prebound goat anti-mouse IgG Fc mAbs, as described in Materials and Methods. […] Unbound protein was removed by extensive washings and NADH production then measured by the increase of absorbance at 340 nm or by coupled fluorescence assay, in the presence of NAD+, pyruvate, CoA, TPP, MgCl2, and cysteine as a reducing agent in 50 mM Tris-HCl buffer pH 7.8. […]

SMILES	Level of phosphorylation of E1α (isoelectric point shift) [1]	Inhibition of immunocaptured PDH activity [2]	Increase of PDH activity [2]
Nc1ncnc2c1ncn2[C@@H]1O[C@H](COP(=O)(O)OP(=O)(O)OP(=O)(O)O)[C@@H](O)[C@H]1O [ATP]	greatly increased the level of phosphorylation; also recorded: increases the phosphorylation patterns of E1α	about 70%	–
O=C(O)C(Cl)Cl [Dichloroacetate]	–	–	34%
O=[As]O [sodium arsenite]	–	> 98%	–
